The values below come from patent US20240300939A1 (Scorpion Therapeutics, Inc., priority 2021, published 2024).

Some results are limits rather than exact numbers.

T1 sequence (P42336 whole entry H1047R): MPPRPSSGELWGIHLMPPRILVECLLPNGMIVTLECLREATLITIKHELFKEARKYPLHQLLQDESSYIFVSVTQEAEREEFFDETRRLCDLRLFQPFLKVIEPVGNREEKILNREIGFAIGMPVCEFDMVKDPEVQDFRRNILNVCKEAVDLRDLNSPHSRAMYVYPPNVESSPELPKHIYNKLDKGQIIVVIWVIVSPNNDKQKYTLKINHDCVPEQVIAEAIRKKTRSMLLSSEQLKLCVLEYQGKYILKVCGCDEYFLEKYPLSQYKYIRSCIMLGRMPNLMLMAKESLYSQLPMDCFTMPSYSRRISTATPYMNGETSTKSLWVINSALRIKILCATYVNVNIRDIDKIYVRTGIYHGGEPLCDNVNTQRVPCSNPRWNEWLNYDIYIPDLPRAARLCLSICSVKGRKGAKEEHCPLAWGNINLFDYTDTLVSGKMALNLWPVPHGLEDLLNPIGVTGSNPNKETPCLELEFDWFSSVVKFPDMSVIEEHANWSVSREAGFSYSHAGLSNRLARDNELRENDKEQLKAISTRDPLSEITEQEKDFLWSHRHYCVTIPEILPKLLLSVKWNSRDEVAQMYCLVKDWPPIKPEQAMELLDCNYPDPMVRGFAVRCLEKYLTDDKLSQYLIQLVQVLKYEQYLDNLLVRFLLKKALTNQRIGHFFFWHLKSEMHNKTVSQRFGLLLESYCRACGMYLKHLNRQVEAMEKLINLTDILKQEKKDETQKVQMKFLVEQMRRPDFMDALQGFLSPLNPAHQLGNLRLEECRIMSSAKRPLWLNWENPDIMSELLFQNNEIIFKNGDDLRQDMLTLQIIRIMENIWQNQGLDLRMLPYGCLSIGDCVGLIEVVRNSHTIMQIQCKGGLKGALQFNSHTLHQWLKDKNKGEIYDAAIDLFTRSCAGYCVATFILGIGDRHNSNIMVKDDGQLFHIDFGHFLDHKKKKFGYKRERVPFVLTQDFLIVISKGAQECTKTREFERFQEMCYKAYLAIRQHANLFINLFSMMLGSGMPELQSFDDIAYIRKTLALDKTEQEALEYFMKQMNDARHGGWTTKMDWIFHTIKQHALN
T1 sequence (P27986 322-694 partner limits assumed): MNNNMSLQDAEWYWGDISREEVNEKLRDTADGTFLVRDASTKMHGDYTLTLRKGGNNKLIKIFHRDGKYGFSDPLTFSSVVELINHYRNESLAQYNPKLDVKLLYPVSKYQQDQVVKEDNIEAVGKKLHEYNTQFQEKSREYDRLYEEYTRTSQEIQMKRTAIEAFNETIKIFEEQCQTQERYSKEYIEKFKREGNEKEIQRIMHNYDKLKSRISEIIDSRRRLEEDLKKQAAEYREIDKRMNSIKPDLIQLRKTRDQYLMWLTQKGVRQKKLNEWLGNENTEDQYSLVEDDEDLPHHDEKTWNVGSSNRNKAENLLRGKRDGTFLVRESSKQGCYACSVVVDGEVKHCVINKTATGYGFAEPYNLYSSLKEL

The first experiment has as its system pAKT (S473) in T47D cells (PI3Kα H1047R mutation). The experiment can be described thus: HTRF pAKT (S473) in T47D cells. It is filed as cell-based. The settings on record: Homo sapiens, T47D, 1 h.
As for `Cc1c([C@@H](NC(=O)Nc2cccc(N3CCC3=O)c2)C(C)C)oc2ccc(F)cc12` [Compound 104], the half-inhibitory concentration (IC50) is less than 1000 nM. `Cc1c([C@H](NC(=O)Nc2cnc(N3C[C@H](O)[C@H]3C)nc2)C(F)(F)F)oc2c(F)cc(F)cc12` [Compound 173] had an IC50 of more than 5000 nM. `Cc1c([C@@H](NC(=O)Nc2cnc(N3C[C@H](O)[C@H]3C)nc2)C(F)(F)F)oc2c(F)cc(F)cc12` [Compound 174] displayed an IC50 of less than 1000 nM. On the same count and under the same terms, then `Cc1c([C@@H](NC(=O)Nc2cnc(NCC(C)(C)O)nc2)C(F)(F)F)oc2c(F)cc(F)cc12` [Compound 183], with less than 1000 nM; and `Cc1c([C@H](NC(=O)Nc2cnc(NCC(C)(C)O)nc2)C(F)(F)F)oc2c(F)cc(F)cc12` [Compound 184], with more than 5000 nM.

Staying with this experiment, now noted: timepoint 1 hour.
In turn, `Cc1c([C@@H](NC(=O)Nc2cnc(NC[C@@H](C)O)nc2)C(C)C)oc2ccc(F)cc12` [Compound 143] yielded an IC50 of less than 1000 nM.

`Cc1c(C(NC(=O)Nc2ccc(N)nc2)C(F)(F)F)oc2c(F)cc(F)cc12` (centres unmarked) [Compound 181]: the IC50 was more than 5000 nM. As to `Cc1c(C(NC(=O)Nc2ccc(N)nc2)C(F)(F)F)oc2c(F)cc(F)cc12` (centres unmarked) [Compound 182], the concentration for half-maximal inhibition (IC50) was less than 1000 nM. Still for that read-out and setting: then `Cc1c([C@@H](NC(=O)Nc2cnc(N3CC(C(C)(C)O)C3)nc2)C(F)(F)F)oc2c(F)cc(F)cc12` [Compound 205], with less than 1000 nM. The molecule `Cc1c([C@H](NC(=O)Nc2cnc(N3CC(C(C)(C)O)C3)nc2)C(F)(F)F)oc2c(F)cc(F)cc12` [Compound 206] registered a half-maximal inhibitory concentration (IC50) of more than 5000 nM. As for `Cc1c([C@H](NC(=O)Nc2cnc(N3CC[C@@H](O)C3)nc2)C(F)(F)F)oc2c(F)cc(F)cc12` [Compound 207], the IC50 is more than 5000 nM. `Cc1c([C@@H](NC(=O)Nc2cnc(N3CC[C@@H](O)C3)nc2)C(F)(F)F)oc2c(F)cc(F)cc12` [Compound 208]: the IC50 is less than 1000 nM. Still for that read-out and setting: to `Cc1c([C@@H](NC(=O)Nc2cnc(N3CC[C@H](O)C3)nc2)C(F)(F)F)oc2c(F)cc(F)cc12` [Compound 209] belongs less than 1000 nM; to `Cc1c([C@H](NC(=O)Nc2cnc(N3CC[C@H](O)C3)nc2)C(F)(F)F)oc2c(F)cc(F)cc12` [Compound 210], more than 5000 nM. `Cc1c([C@@H](NC(=O)Nc2cnc(N3CC(C(N)=O)C3)nc2)C(F)(F)F)oc2c(F)cc(F)cc12` [Compound 211] showed an IC50 of less than 1000 nM. As for `Cc1c([C@H](NC(=O)Nc2cnc(N3CC(C(N)=O)C3)nc2)C(F)(F)F)oc2c(F)cc(F)cc12` [Compound 212], the IC50 is more than 5000 nM.

A further experiment addresses T1, PI3Kα H1047R (Homo sapiens, UniProt P42336, H1047R).
T1 construct: The protein contained a full-length p110-a subunit harboring the H1047R mutation with an N-terminal AviTag
The experiment can be described thus: Surface Plasmon Resonance (SPR) binding, wortmannin-blocked protein. As to conditions: Biacore 8K, protein pre-incubated with 1 μM wortmannin, 25° C. How it is done:
SPR experiments were performed on a Biacore 8K instrument. A biotinylated recombinant PI3Kα H1047R protein was used in this study. The protein contained a full-length p110-a subunit harboring the H1047R mutation with an N-terminal AviTag, complexed with a truncated p85-a subunit (amino acid residues 322-694). The protein was first incubated with 1 μM wortmannin for 30 min at RT to covalently block the ATP binding site, then immobilized onto a streptavidin sensor chip by flowing the protein through the sensor chip at typically 20 μg/mL concentration and 2 μL/min flow rate for 1200 seconds. Compound binding affinities were measured in the multi-cycle kinetics mode, at 90 μL/min flow rate with 90 seconds association time and 240 seconds dissociation time. The running buffer contained 50 mM Tris, pH 7.5, 150 mM NaCl, 0.01% Brij35, 1 mM DTT, 1 mM MgCl2, 0.05% Tween-20 and 2% DMSO. Temperature was maintained at 25° C. during experiments.
On to `Cc1c([C@@H](NC(=O)N[C@H]2CC[C@H](C(N)=O)CC2)C(C)C)oc2ccc(F)cc12` (relative stereo) [Compound 42, (1R,4r)-4-(3-((R*)-1-(5-fluoro-3-methylbenzofuran-2-yl)-2-methylpropyl)ureido)cyclohexane-1-carboxamide], for which the equilibrium dissociation constant (Kd) was not below 500 nM.
